In EP4759812A1 (Guangzhou Lupeng Pharmaceutical Co., Ltd., priority 2023, dated 2025):

Columns and labels:
Type in all cases: physicochemical
[1] = Influencing factor stability: light exposure test; details: Visible light 4500 Lux ± 500 Lux; for Crystal form: ultraviolet light 1.7 W*h/m^2 (25°C, RH 60%±5%), XRPD; for Purity: HPLC, starting purity: Crystal form VI 99.32%, Amorphous form 98.80%, Crystal form XIII 99.01%
Experimental: (§1) The crystal form results under different conditions were identified by XRPD analysis, and the purity results under different conditions were identified by HPLC analysis.
(§2) The above samples were then taken on days 5, 10, 15, and 30, respectively. Their crystal forms were tested by adopting X-ray powder diffraction (XRPD), and the sample purities were tested by adopting HPLC. […]

[2] = Influencing factor stability: high-humidity test; details: Temperature 25°C, relative humidity 92.5±5%; for Purity: HPLC, starting purity: Crystal form VI 99.32%, Amorphous form 98.80%, Crystal form XIII 99.01%; for Crystal form: XRPD
Experimental: as §1, §2

[3] = Dynamic vapor sorption (DVS) experiment; details: for Adsorption weight gain (80% RH) / Adsorption weight gain (95% RH): DVS; for Hygroscopicity: class per Chinese Pharmacopoeia 2010 guidance (25±0.2°C, 80% relative humidity)
[4] = Morphological comparison under polarizing light microscope; details: for dispersibility and flowability / agglomeration and caking: judged from polarizing light microscope images; for crystal morphology: polarizing light microscope
[5] = Stability test in pure water and buffer solution (suspension, XRPD); details: 25°C, stirred 24 h, solid by XRPD
Experimental: The suspensions were stirred at 25°C for 24 h, and filtered to obtain the solids. Samples were taken for XRPD measurement. […]

[6] = Influencing factor stability: high-temperature test; details: Temperature 60°C; for Purity: HPLC, starting purity: Crystal form VI 99.32%, Amorphous form 98.80%, Crystal form XIII 99.01%; for Crystal form: XRPD
Experimental: as §1, §2

[7] = ultraviolet light 1.7 W*h/m^2, 5 days
[8] = ultraviolet light 1.7 W*h/m^2, 10 days
[9] = ultraviolet light 1.7 W*h/m^2, 15 days
[10] = ultraviolet light 1.7 W*h/m^2, 30 days

Compound	Crystal form ([1]; 5 days)	Crystal form ([1]; 10 days)	Crystal form ([1]; 15 days)	Crystal form ([1]; 30 days)	Purity [1, 7]	Purity [1, 8]	Purity [1, 9]	Purity [1, 10]	Purity ([2]; 5 days)	Crystal form ([2]; 5 days)	Purity ([2]; 10 days)	Crystal form ([2]; 10 days)	Purity ([2]; 15 days)	Crystal form ([2]; 15 days)	Purity ([2]; 30 days)	Crystal form ([2]; 30 days)	Adsorption weight gain (80% RH) [3]	Adsorption weight gain (95% RH) [3]	Suspension result ([5]; pH 4.5 buffer solution)	Suspension result ([5]; pH 6.8 buffer solution)	further results
C=CC(=O)Nc1cc(Nc2nc(-c3ccnc(N4CCn5c(cc6c5CC(C)(C)C6)C4=O)c3CO)cn(C)c2=O)ccc1N1CCN(C2CCOCC2)C[C@@H]1C [Amorphous form, (S)-N-(5-((6-(2-(7,7-dimethyl-1-oxo-1,3,4,6,7,8-hexahydro-2H-cyclopenta[4,5]pyrrolo[1,2-a]pyrazin-2-yl)-3-(hydroxymethyl)pyridin-4-yl)-4-methyl-3-oxo-3,4-dihydropyrazin-2-yl)amino)-2-(2-methyl-4-(tetrahydro-2H-pyran-4-yl)piperazin-1-yl)phenyl)acrylamide]	Amorphous form	Amorphous form	Amorphous form	Amorphous form	98.46%	97.98%	97.29%	96.55%	98.72%	Amorphous form	98.50%	Amorphous form	98.38%	Amorphous form	98.21%	Amorphous form	4.55%	6.76%	Transform into other crystal forms	Transform into other crystal forms	Adsorption weight gain (80% RH) ([3]; listed as amorphous form): about 4.55%; Adsorption weight gain (95% RH) ([3]; listed as amorphous form): about 6.76%; Hygroscopicity [3]: Hygroscopic (hygroscopic weight gain is less than 15% but not less than 2%); Hygroscopicity ([3]; listed as amorphous form): hygroscopic; dispersibility and flowability / agglomeration and caking [4]: significant agglomeration and caking; crystal morphology [4]: irregular glassy state; Suspension result ([5]; Pure water): Transform into other crystal forms; Purity ([6]; 5 days): 98.61%; Crystal form ([6]; 5 days): Amorphous form; Purity ([6]; 10 days): 98.44%; Crystal form ([6]; 10 days): Amorphous form; Purity ([6]; 15 days): 98.39%; Crystal form ([6]; 15 days): Amorphous form; Purity ([6]; 30 days): 97.88%; Crystal form ([6]; 30 days): Amorphous form
C=CC(=O)Nc1cc(Nc2nc(-c3ccnc(N4CCn5c(cc6c5CC(C)(C)C6)C4=O)c3CO)cn(C)c2=O)ccc1N1CCN(C2CCOCC2)C[C@@H]1C [Crystal form V, (S)-N-(5-((6-(2-(7,7-dimethyl-1-oxo-1,3,4,6,7,8-hexahydro-2H-cyclopenta[4,5]pyrrolo[1,2-a]pyrazin-2-yl)-3-(hydroxymethyl)pyridin-4-yl)-4-methyl-3-oxo-3,4-dihydropyrazin-2-yl)amino)-2-(2-methyl-4-(tetrahydro-2H-pyran-4-yl)piperazin-1-yl)phenyl)acrylamide]																			Transform into other crystal forms	Transform into other crystal forms	
C=CC(=O)Nc1cc(Nc2nc(-c3ccnc(N4CCn5c(cc6c5CC(C)(C)C6)C4=O)c3CO)cn(C)c2=O)ccc1N1CCN(C2CCOCC2)C[C@@H]1C [Crystal form XIII, (S)-N-(5-((6-(2-(7,7-dimethyl-1-oxo-1,3,4,6,7,8-hexahydro-2H-cyclopenta[4,5]pyrrolo[1,2-a]pyrazin-2-yl)-3-(hydroxymethyl)pyridin-4-yl)-4-methyl-3-oxo-3,4-dihydropyrazin-2-yl)amino)-2-(2-methyl-4-(tetrahydro-2H-pyran-4-yl)piperazin-1-yl)phenyl)acrylamide]	Crystal form XIII	Crystal form XIII	Crystal form XIII	Crystal form XIII	98.65%	98.32%	97.76%	97.15%	98.92%	Crystal form XIII	98.86%	Crystal form XIII	98.81%	Crystal form XIII	98.77%	Crystal form XIII	6.53%	14.45%	Transform into other crystal forms	Transform into other crystal forms	Adsorption weight gain (80% RH) ([3]; listed as crystal form XIII): about 6.53%; Adsorption weight gain (95% RH) ([3]; listed as crystal form XIII): about 14.45%; Hygroscopicity [3]: Hygroscopic (hygroscopic weight gain is less than 15% but not less than 2%); Hygroscopicity ([3]; listed as crystal form XIII): hygroscopic; dispersibility and flowability / agglomeration and caking [4]: relatively poor flowability; crystal morphology [4]: fine; Suspension result ([5]; Pure water): Transform into other crystal forms; Purity ([6]; 5 days): 98.79%; Crystal form ([6]; 5 days): Transform into other crystal forms; Purity ([6]; 10 days): 98.54%; Crystal form ([6]; 10 days): Transform into other crystal forms; Purity ([6]; 15 days): 98.20%; Crystal form ([6]; 15 days): Transform into other crystal forms; Purity ([6]; 30 days): 97.85%; Crystal form ([6]; 30 days): Transform into other crystal forms
